Assay results published in ChEMBL document CHEMBL4420062, “Tfpi inhibitors and methods of use” (2013).

Tests used:
[1] = Stability in human plasma assessed as parent compound remaining after 24 hrs; assay type: ADME, cell-free; conditions: read-out: Stability
[2] = Stability in mouse plasma assessed as parent compound remaining after 24 hrs; assay type: ADME, cell-free; conditions: read-out: Stability

| Compound | remaining at 24 h [1] [%] | remaining at 24 h [2] [%] |
| --- | --- | --- |
| CC(=O)N[C@@H](Cc1ccccc1)C(=O)N[C@@H](CCC(N)=O)C(=O)N[C@@H](CO)C(=O)N[C@@H](CCCCN)C(=O)N1CCC[C@@H]1C(=O)N[C@@H](CC(N)=O)C(=O)N[C@H](C(=O)N[C@@H](Cc1cnc[nH]1)C(=O)N[C@H](C(=O)N[C@@H](CC(=O)O)C(=O)N[C@H](C)C(=O)N[C@@H](Cc1ccc(O)cc1)C(=O)N[C@@H](Cc1ccccc1)C(=O)N[C@@H](CCC(=O)O)C(=O)N[C@@H](CCCNC(=N)N)C(=O)N[C@@H](CC(C)C)C(=O)NC1(C(=O)N[C@@H](C)C(=O)N[C@@H](CCCCN)C(=O)N[C@@H](CC(C)C)C(N)=O)Cc2ccccc2C1)C(C)(C)C)C(C)C | 104 | 53 |
| CC(=O)N[C@@H](Cc1cccs1)C(=O)N[C@@H](CCC(N)=O)C(=O)N[C@@H](CO)C(=O)N[C@@H](CCCCN)C(=O)N1CCC[C@@H]1C(=O)N[C@@H](CC(N)=O)C(=O)N[C@H](C(=O)N[C@@H](Cc1cnc[nH]1)C(=O)N[C@H](C(=O)N[C@@H](CC(=O)O)C(=O)NCC(=O)N[C@@H](Cc1ccc(O)cc1)C(=O)N[C@@H](Cc1ccccc1)C(=O)N[C@@H](CCC(=O)O)C(=O)N[C@@H](CCCNC(=N)N)C(=O)N[C@@H](CC(C)C)C(=O)NC(C)(C)C(=O)N[C@@H](C)C(=O)N[C@@H](CCCCN)C(=O)N[C@@H](CC(C)C)C(N)=O)C(C)C)C(C)C | 19.8 | 1.2 |
| CC(=O)N[C@@H](Cc1ccccc1)C(=O)N[C@@H](CCC(N)=O)C(=O)N[C@@H](CO)C(=O)N[C@@H](CCCCN)C(=O)N1CCC[C@@H]1C(=O)N[C@@H](CC(N)=O)C(=O)N[C@H](C(=O)N[C@@H](Cc1cnc[nH]1)C(=O)N[C@H](C(=O)N[C@@H](CC(=O)O)C(=O)NCC(=O)N[C@@H](Cc1ccc(O)cc1)C(=O)N[C@@H](Cc1ccccc1)C(=O)N[C@@H](CCC(=O)O)C(=O)N[C@@H](CCCNC(=N)N)C(=O)N[C@@H](CC(C)C)C(=O)NC(C)(C)C(=O)N[C@@H](C)C(=O)N[C@@H](CCCCN)C(=O)N[C@@H](CC(C)C)C(N)=O)c1ccccc1)C(C)C | 34.7 | 4.8 |
| CC(=O)N[C@@H](Cc1ccccc1)C(=O)N[C@@H](CCC(N)=O)C(=O)N[C@@H](CO)C(=O)N[C@@H](CCCCN)C(=O)N1CCC[C@@H]1C(=O)N[C@@H](CC(N)=O)C(=O)N[C@H](C(=O)N[C@@H](Cc1cnc[nH]1)C(=O)N[C@H](C(=O)N1CCC[C@H]1C(=O)NCC(=O)N[C@@H](Cc1ccc(O)cc1)C(=O)N[C@@H](Cc1ccccc1)C(=O)NC(C)(C)C(=O)N[C@@H](CCCNC(=N)N)C(=O)N[C@@H](CC(C)C)C(=O)NC(C)(C)C(=O)N[C@@H](C)C(=O)N[C@@H](CCCCN)C(=O)N[C@@H](CC(C)C)C(N)=O)C(C)C)C(C)C | 99.5 | 31.2 |
| CC(=O)N[C@@H](Cc1cccc2ccccc12)C(=O)N[C@@H](CCC(N)=O)C(=O)N[C@@H](CO)C(=O)N[C@@H](CCCCN)C(=O)N1CCC[C@@H]1C(=O)N[C@@H](CC(N)=O)C(=O)N[C@H](C(=O)N[C@@H](Cc1cnc[nH]1)C(=O)N[C@H](C(=O)N[C@@H](CC(=O)O)C(=O)NCC(=O)N[C@@H](Cc1ccc(O)cc1)C(=O)N[C@@H](Cc1ccccc1)C(=O)N[C@@H](CCC(=O)O)C(=O)N[C@@H](CCCNC(=N)N)C(=O)N[C@@H](CC(C)C)C(=O)NC(C)(C)C(=O)N[C@@H](C)C(=O)N[C@@H](CCCCN)C(=O)N[C@@H](CC(C)C)C(N)=O)C(C)C)C(C)C | 19.3 | 0 |
| CCCCCCCCCCCCCCCC(=O)NCCCOCCOCCOCCCNC(=O)CCNC(=O)CCC(=O)NCCCC[C@H](NC(=O)[C@H](CC(C)C)NC(=O)[C@H](CCCCN)NC(=O)[C@H](C)NC(=O)C(C)(C)NC(=O)[C@H](CC(C)C)NC(=O)[C@H](CCCNC(=N)N)NC(=O)[C@H](CCC(=O)O)NC(=O)[C@H](Cc1ccccc1)NC(=O)[C@H](Cc1ccc(O)cc1)NC(=O)[C@@H](C)NC(=O)[C@H](CC(=O)O)NC(=O)[C@@H](NC(=O)[C@H](Cc1cnc[nH]1)NC(=O)[C@@H](NC(=O)[C@H](CSCNC(C)=O)NC(=O)[C@H]1CCCN1C(=O)[C@H](CCCCN)NC(=O)[C@H](CO)NC(=O)[C@H](CCC(N)=O)NC(=O)[C@H](Cc1ccccc1)NC(=O)CCCCC)C(C)C)C(C)(C)C)C(N)=O | 108 | 67.5 |
| CC(=O)N[C@@H](Cc1ccccc1)C(=O)N[C@@H](CCC(N)=O)C(=O)N[C@@H](CO)C(=O)N[C@@H](CCCCN)C(=O)N1CCC[C@@H]1C(=O)N[C@@H](CC(N)=O)C(=O)N[C@H](C(=O)N[C@@H](Cc1cnc[nH]1)C(=O)N[C@H](C(=O)N[C@@H](CC(=O)O)C(=O)N[C@H](C)C(=O)N[C@@H](Cc1ccc(O)cc1)C(=O)N[C@@H](Cc1ccccc1)C(=O)N[C@@H](CCC(=O)O)C(=O)N[C@@H](CCCNC(=N)N)C(=O)N[C@@H](CC(C)C)C(=O)NC(C)(C)C(=O)N[C@@H]1CSSCCNC(=O)[C@H](CC(C)C)NC(=O)[C@H](CCCCN)NC1=O)C(C)(C)C)C(C)C | 12.1 | 34.3 |
| CCCCCCCCCCCCCC(=O)NCCCOCCOCCOCCCNC(=O)CCNCCCC[C@H](NC(=O)[C@H](CC(C)C)NC(=O)[C@H](CCCCN)NC(=O)[C@H](C)NC(=O)C(C)(C)NC(=O)[C@H](CC(C)C)NC(=O)[C@H](CCCNC(=N)N)NC(=O)[C@H](CCC(=O)O)NC(=O)[C@H](Cc1ccccc1)NC(=O)[C@H](Cc1ccc(O)cc1)NC(=O)[C@@H](C)NC(=O)[C@H](CC(=O)O)NC(=O)[C@@H](NC(=O)[C@H](Cc1cnc[nH]1)NC(=O)[C@@H](NC(=O)[C@H](CSCNC(C)=O)NC(=O)[C@H]1CCCN1C(=O)[C@H](CCCCN)NC(=O)[C@H](CO)NC(=O)[C@H](CCC(N)=O)NC(=O)[C@H](Cc1ccccc1)NC(=O)CCCCC)C(C)C)C(C)(C)C)C(N)=O | 96.5 | 67.5 |
| CC(=O)N[C@@H](Cc1ccccc1)C(=O)N[C@@H](CCC(N)=O)C(=O)N[C@@H](CO)C(=O)N[C@@H](CCCCN)C(=O)N1CCC[C@@H]1C(=O)N[C@@H](CC(N)=O)C(=O)N[C@H](C(=O)N[C@@H](Cc1c[nH]cn1)C(=O)N[C@H](C(=O)N[C@@H](CC(=O)O)C(=O)NCC(=O)N[C@@H](Cc1ccc(O)cc1)C(=O)N[C@@H](Cc1ccccc1)C(=O)N[C@@H](CCC(=O)O)C(=O)N[C@@H](CCCNC(=N)N)C(=O)N[C@@H](CC(C)C)C(=O)NC(C)(C)C(=O)N[C@@H](C)C(=O)N[C@@H](CCCCN)C(=O)N[C@@H](CC(C)C)C(N)=O)C1CCCCC1)C(C)C | 27.6 | 5.4 |
| CC(C)C[C@@H]1NC(=O)[C@H](CCCCN)NC(=O)[C@H](C)NC(=O)C(C)(C)NC(=O)[C@H](CC(C)C)NC(=O)[C@H](CCCNC(=N)N)NC(=O)[C@H](CCC(=O)O)NC(=O)[C@H](Cc2ccccc2)NC(=O)[C@H](Cc2ccc(O)cc2)NC(=O)CNC(=O)[C@H](CC(=O)O)NC(=O)[C@H](C(C)C)NC(=O)[C@H](Cc2cnc[nH]2)NC(=O)[C@H](C(C)C)NC(=O)[C@H](CC(N)=O)NC(=O)[C@H]2CCCN2C(=O)[C@H](CCCCN)NC(=O)[C@H](CO)NC(=O)[C@H](CCC(N)=O)NC(=O)[C@H](Cc2ccccc2)NC(=O)CCOCCOCCOCCNC1=O | 62.8 | 38.1 |
| CC(=O)N[C@@H](Cc1ccccc1)C(=O)N[C@@H](CCC(N)=O)C(=O)N[C@@H](CO)C(=O)N[C@@H](CCCCN)C(=O)N1CCC[C@@H]1C(=O)N[C@@H](CC(N)=O)C(=O)N[C@H](C(=O)N[C@@H](Cc1cnc[nH]1)C(=O)N[C@H](C(=O)N[C@@H](CC(=O)O)C(=O)N[C@@H]1CSSCC[C@@H](C(=O)N[C@@H](CCCNC(=N)N)C(=O)N[C@@H](CC(C)C)C(=O)N[C@@H](C)C(=O)N[C@@H](C)C(=O)N[C@@H](CCCCN)C(=O)N[C@@H](CC(C)C)C(N)=O)NC(=O)[C@H](Cc2ccccc2)NC(=O)[C@H](Cc2ccc(O)cc2)NC1=O)C(C)(C)C)C(C)C | 61.5 | 11.1 |
| CC(C)C[C@H](NC(=O)[C@H](CCCCN)NC(=O)[C@H](C)NC(=O)C(C)(C)NC(=O)[C@H](CC(C)C)NC(=O)[C@H](CCCNC(=N)N)NC(=O)[C@H](CCC(=O)O)NC(=O)[C@H](Cc1ccccc1)NC(=O)[C@H](Cc1ccc(O)cc1)NC(=O)[C@@H](C)NC(=O)[C@H](CC(=O)O)NC(=O)[C@@H](NC(=O)[C@H](Cc1cnc[nH]1)NC(=O)[C@@H](NC(=O)[C@H](CC(N)=O)NC(=O)[C@H]1CCCN1C(=O)[C@H](CCCCN)NC(=O)[C@H](CO)NC(=O)[C@H](CCC(N)=O)NC(=O)[C@H](Cc1ccccc1)NS(=O)(=O)c1cccc2ccccc12)C(C)C)C(C)(C)C)C(N)=O | 107 | 52 |
| CC(=O)N[C@@H](Cc1ccccc1)C(=O)N[C@@H](CCC(N)=O)C(=O)N[C@@H](CO)C(=O)N[C@@H](CCCCN)C(=O)N1CCC[C@@H]1C(=O)N[C@@H](CC(N)=O)C(=O)N[C@H](C(=O)N[C@@H](Cc1cnc[nH]1)C(=O)N[C@H](C(=O)N[C@@H](CC(=O)O)C(=O)N[C@H](C)C(=O)N[C@@H](Cc1ccc(O)cc1)C(=O)N[C@@H](Cc1ccccc1)C(=O)N[C@@H](CCC(=O)O)C(=O)N[C@@H](CCCNC(=N)N)C(=O)N[C@@H](CC(C)C)C(=O)NC(C)(C)C(=O)N[C@@H](C)C(=O)N[C@@H](CCCCN)C(=O)N[C@@H](CC(C)C)C(N)=O)C(C)(C)C)C(C)C | 100 | 47.2 |
| CCCCCC(=O)N[C@@H](Cc1ccccc1)C(=O)N[C@@H](CCC(N)=O)C(=O)N[C@@H](CO)C(=O)N[C@@H](CCCCN)C(=O)N1CCC[C@@H]1C(=O)N[C@@H](CC(N)=O)C(=O)N[C@H](C(=O)N[C@@H](Cc1cnc[nH]1)C(=O)N[C@H](C(=O)N[C@@H](CC(=O)O)C(=O)N[C@H](C)C(=O)N[C@@H](Cc1ccc(O)cc1)C(=O)N[C@@H](Cc1ccccc1)C(=O)N[C@@H](CCC(=O)O)C(=O)N[C@@H](CCCNC(=N)N)C(=O)N[C@@H](CC(C)C)C(=O)NC(C)(C)C(=O)N[C@@H](C)C(=O)N[C@@H](CCCCN)C(=O)N[C@@H](CC(C)C)C(N)=O)C(C)(C)C)C(C)C | 97.4 | 39.9 |
| CC(=O)N[C@@H](Cc1ccccc1)C(=O)N[C@@H](CCC(N)=O)C(=O)N[C@@H](CO)C(=O)N[C@@H](CCCCN)C(=O)N1CCC[C@@H]1C(=O)N[C@@H](CC(N)=O)C(=O)N[C@H](C(=O)N[C@@H](Cc1cnc[nH]1)C(=O)N[C@H](C(=O)N[C@@H](CC(=O)O)C(=O)N[C@H](C)C(=O)N[C@@H](Cc1ccc(O)cc1)C(=O)N[C@@H](Cc1ccccc1)C(=O)N[C@@H](CCC(=O)O)C(=O)N[C@@H](CCCNC(=N)N)C(=O)N[C@@H](CC(C)C)C(=O)NC(C)(C)C(=O)NC(C)(C)C(=O)N[C@@H](CCCCN)C(=O)N[C@@H](CC(C)C)C(N)=O)C(C)(C)C)C(C)C | 99.2 | 85.9 |
